Measured values published in PubChem BioAssay AID248 (DTP/NCI, 2004).
Where “and” joins values, the source holds several entries; their conditions need not be identical. Identical values can stand only once. Toxic doses and inconclusive results are not listed. Cut-off read from the data, not from the text of the source: active = T/C of 150% or more; inactive = T/C below 125%.

Tested on: L1210 leukemia ip in BDF1 mice, survival T/C
Assay: NCI In Vivo Anticancer Drug Screen. Data for tumor model L1210 Leukemia (intraperitoneal) in B6D2F1 (BDF1) mice
Conditions: endpoint: mean survival time, higher = longer survival
Summary of the method: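 Tumor was transplanted into mice, which were then dosed with test compound or vehicle alone. Survival was recorded for each group, and the treated figure was expressed relative to the control figure.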

[1] = dose: 100.0 mg/kg/injection, schedule: Q01DX001 (ip), vehicle: saline
[2] = dose: 200.0 mg/kg/injection, schedule: Q01DX001 (ip), vehicle: saline
[3] = dose: 100.0 mg/kg/injection, schedule: Q01DX009 (ip), vehicle: Klucel (hydroxypropylcellulose) (HPC)
[4] = dose: 400.0 mg/kg/injection, schedule: Q01DX001 (ip), vehicle: saline
[5] = dose: 100.0 mg/kg/injection, schedule: Q04DX002 (ip), vehicle: Klucel (hydroxypropylcellulose) (HPC)
[6] = dose: 200.0 mg/kg/injection, schedule: Q04DX002 (ip), vehicle: Klucel (hydroxypropylcellulose) (HPC)
[7] = dose: 100.0 mg/kg/injection, schedule: Q01DX009 (ip), vehicle: saline with Tween-80
[8] = dose: 200.0 mg/kg/injection, schedule: Q01DX009 (ip), vehicle: saline with Tween-80
[9] = dose: 100.0 mg/kg/injection, schedule: Q04DX003 (ip), vehicle: saline with Tween-80
[10] = dose: 200.0 mg/kg/injection, schedule: Q04DX003 (ip), vehicle: saline with Tween-80
[11] = dose: 400.0 mg/kg/injection, schedule: Q04DX003 (ip), vehicle: saline with Tween-80
[12] = dose: 200.0 mg/kg/injection, schedule: Q01DX009 (ip), vehicle: Klucel (hydroxypropylcellulose) (HPC)
[13] = dose: 400.0 mg/kg/injection, schedule: Q01DX009 (ip), vehicle: Klucel (hydroxypropylcellulose) (HPC)
[14] = dose: 25.0 mg/kg/injection, schedule: Q04DX003 (ip), vehicle: Klucel (hydroxypropylcellulose) (HPC)
[15] = dose: 50.0 mg/kg/injection, schedule: Q04DX003 (ip), vehicle: Klucel (hydroxypropylcellulose) (HPC)
[16] = dose: 100.0 mg/kg/injection, schedule: Q01DX001 (ip), vehicle: Klucel (hydroxypropylcellulose) (HPC)
[17] = dose: 100.0 mg/kg/injection, schedule: Q04DX003 (ip), vehicle: Klucel (hydroxypropylcellulose) (HPC)
[18] = dose: 25.0 mg/kg/injection, schedule: Q01DX009 (ip), vehicle: Klucel (hydroxypropylcellulose) (HPC)
[19] = dose: 50.0 mg/kg/injection, schedule: Q01DX009 (ip), vehicle: Klucel (hydroxypropylcellulose) (HPC)
[20] = dose: 100.0 mg/kg/injection, schedule: Q01DX001 (ip), vehicle: carboxymethylcellulose (CMC)
[21] = dose: 200.0 mg/kg/injection, schedule: Q01DX001 (ip), vehicle: carboxymethylcellulose (CMC)
[22] = dose: 400.0 mg/kg/injection, schedule: Q01DX001 (ip), vehicle: carboxymethylcellulose (CMC)

Measured: T/C

NC(=O)c1ccccc1C(=O)c1ccccc1
inactive: [1] 102 % of control | [2] 104 % of control

O=S(=O)(F)c1cc(Cl)c(O)c(S(=O)(=O)F)c1
inactive: [3] 101 % of control

Oc1cccc(NC(=S)Nc2ccccc2)c1
inactive: dose: 50.0 mg/kg/injection, schedule: Q01DX001 (ip), vehicle: saline 100 % of control | [1] 94 % of control | [2] 97 % of control | [4] 97 % of control

Nc1cc(Nc2cccc(Br)c2)nc(N)n1
inactive: [5] 97 % of control | [6] 108 % of control

Cc1cccc(C)c1SSc1c(C)cccc1C
inactive: dose: 50.0 mg/kg/injection, schedule: Q04DX002 (ip), vehicle: other 96 % of control | dose: 100.0 mg/kg/injection, schedule: Q04DX002 (ip), vehicle: other 108 % of control | dose: 200.0 mg/kg/injection, schedule: Q04DX002 (ip), vehicle: other 101 % of control

CNC(=O)Nc1ccc(S(=O)(=O)Nc2nc(C)cc(C)n2)cc1
inactive: dose: 50.0 mg/kg/injection, schedule: Q01DX009 (ip), vehicle: saline with Tween-80 96 % of control | [7] 96 % of control | [8] 93 % of control

COC(=O)CCCC1CC(=O)c2c(c(O)c3ccccc3c2O)C1=O (configuration not stated)
inactive: dose: 100.0 mg/kg/injection, schedule: Q01DX005 (ip), vehicle: saline with Tween-80 92 % of control | [9] 119 % of control | dose: 200.0 mg/kg/injection, schedule: Q01DX005 (ip), vehicle: saline with Tween-80 95 % of control | [10] 105 % of control | dose: 400.0 mg/kg/injection, schedule: Q01DX005 (ip), vehicle: saline with Tween-80 97 % of control | [11] 103 % of control

BrC(Br)c1ccccc1C(Br)Br
inactive: dose: 100.0 mg/kg/injection, schedule: Q01DX009 (ip), vehicle: gum acacia 98 % of control | dose: 100.0 mg/kg/injection, schedule: Q04DX003 (ip), vehicle: gum acacia 99 % of control | dose: 200.0 mg/kg/injection, schedule: Q01DX009 (ip), vehicle: gum acacia 98 % of control | dose: 200.0 mg/kg/injection, schedule: Q04DX003 (ip), vehicle: gum acacia 108 % of control | dose: 400.0 mg/kg/injection, schedule: Q04DX003 (ip), vehicle: gum acacia 97 % of control

O=C(NNC(=S)Nc1ccc(S(=O)(=O)N2CCCCC2)cc1)c1ccncc1
inactive: [3] 92 % of control | [12] 92 % of control | [13] 91 % of control

Cc1c(C)c2c(c(C)c1O)CCC(=O)O2
inactive: [9] 91 % of control | [10] 92 % of control | [11] 94 % of control

NNc1cc(NN)c2[nH]cnc2n1
inactive: dose: 25.0 mg/kg/injection, schedule: Q01DX001 (ip), vehicle: Klucel (hydroxypropylcellulose) (HPC) 100 % of control | [14] 102 % of control | dose: 50.0 mg/kg/injection, schedule: Q01DX001 (ip), vehicle: Klucel (hydroxypropylcellulose) (HPC) 93 % of control | [15] 105 % of control | [16] 100 % of control and 108 % of control | [17] 112 % of control

CCN(CC)CCCC(C)Nc1nccc(/C=C/c2ccc(Cl)cc2)n1 (configuration not stated)
inactive: [1] 96 % of control | [17] 90 % of control | [2] 105 % of control | [4] 100 % of control | dose: 400.0 mg/kg/injection, schedule: Q04DX003 (ip), vehicle: Klucel (hydroxypropylcellulose) (HPC) 94 % of control

N#C/C(=C\c1c(O)ccc2ccccc12)c1ccc([N+](=O)[O-])cc1
inactive: dose: 66.0 mg/kg/injection, schedule: Q01DX009 (ip), vehicle: saline with Tween-80 89 % of control | [7] 91 % of control | dose: 150.0 mg/kg/injection, schedule: Q01DX009 (ip), vehicle: saline with Tween-80 86 % of control

C=C(C)C1(CCCC)C(=O)NC(=S)NC1=O
inactive: dose: 75.0 mg/kg/injection, schedule: Q01DX001 (ip), vehicle: saline 102 % of control | dose: 150.0 mg/kg/injection, schedule: Q01DX001 (ip), vehicle: saline 95 % of control

CC(=O)CC(C)=Nc1cccc(Cl)c1
inactive: [16] 106 % of control | [3] 92 % of control | dose: 200.0 mg/kg/injection, schedule: Q01DX001 (ip), vehicle: Klucel (hydroxypropylcellulose) (HPC) 103 % of control | [12] 108 % of control | dose: 400.0 mg/kg/injection, schedule: Q01DX001 (ip), vehicle: Klucel (hydroxypropylcellulose) (HPC) 100 % of control | [13] 94 % of control

CC(C)=C1C2C=CC1C1C(=O)OC(=O)C21 (configuration not stated)
inactive: dose: 12.5 mg/kg/injection, schedule: Q04DX003 (ip), vehicle: Klucel (hydroxypropylcellulose) (HPC) 107 % of control | [18] 98 % of control | [14] 96 % of control | [19] 95 % of control | [15] 103 % of control | [16] 94 % of control | [17] 100 % of control

OCNC(=S)SSC(=S)NCO
inactive: dose: 100.0 mg/kg/injection, schedule: Q04DX003 (ip), vehicle: saline 96 % of control | dose: 200.0 mg/kg/injection, schedule: Q04DX003 (ip), vehicle: saline 98 % of control | dose: 400.0 mg/kg/injection, schedule: Q04DX003 (ip), vehicle: saline 98 % of control

Cc1ccc(NN)c(I)c1
inactive: dose: 100.0 mg/kg/injection, schedule: Q01DX001 (ip), vehicle: saline with Tween-80 97 % of control | dose: 200.0 mg/kg/injection, schedule: Q01DX001 (ip), vehicle: saline with Tween-80 93 % of control | dose: 400.0 mg/kg/injection, schedule: Q01DX001 (ip), vehicle: saline with Tween-80 95 % of control

C/C(=N\OC(=O)c1ccc([N+](=O)[O-])cc1)C(C)(C)C
inactive: [5] 88 % of control | [6] 100 % of control | dose: 400.0 mg/kg/injection, schedule: Q04DX002 (ip), vehicle: Klucel (hydroxypropylcellulose) (HPC) 96 % of control

COC(=O)/C(=C1\C=C(c2ccccc2)C(=O)O1)c1ccccc1
inactive: [18] 98 % of control | [19] 103 % of control

COc1cc(C(=O)N/N=C/c2ccc(N(C)C)cc2)cc(OC)c1OC
inactive: [9] 102 % of control | [10] 102 % of control | [11] 89 % of control

O=C(Nc1ccc(F)c([N+](=O)[O-])c1)N1CCN(c2ccccc2)CC1
inactive: [3] 101 % of control | [12] 98 % of control | [13] 107 % of control

CCOC(=O)/C=C(/C)Nc1ccc(SC)cc1
inactive: [7] 100 % of control | [8] 96 % of control | dose: 400.0 mg/kg/injection, schedule: Q01DX009 (ip), vehicle: saline with Tween-80 100 % of control

COC(=O)Cc1ccc([N+](=O)[O-])cc1
inactive: [20] 94 % of control | [21] 91 % of control | [22] 88 % of control

Cc1ccc(S(=O)(=O)N(Cc2ccccc2[N+](=O)[O-])c2ccccc2)cc1
inactive: [20] 103 % of control | [21] 100 % of control | [22] 103 % of control
